Results: article PMC12503906, “Novel Pyrazolo [1,5‐a]−1,3,5‐Triazine Derivatives as CDK7 Inhibitors: Synthesis and Biological Insights in Pancreatic Ductal Adenocarcinoma Models” (Chemmedchem, 2025)
Read-outs that look alike come from different tables or passages of the source.

What was measured:
[1] = tested on: PATU‐T; test: SRB chemosensitivity assay, PATU‐T cells; assay type: cell-based; settings: read-out: IC50 PATU‐T
Procedure: (§1) Three lines of immortalized PDAC cells were selected as representative phenotypes: mesenchymal (PATU‐T), quasimesenchymal (PANC‐1), and an epithelial clone of SUIT 2 cells (SUIT 2.28). Cells were cultured in noncoated T‐75 and T‐25 flasks under adherent conditions, using 1× DMEM (Gibco, 41,966,029) for PATU‐T and RPMI (Gibco, 21,875,034) for SUIT 2.28 and PANC‐1, both supplemented with 10% NBCS and 1% P/S. Additional employed models were the PDAC3 cells, a primary cell culture, the PSCs, which were immortalized healthy pancreatic cells, and the PATU‐T‐GR, which was a gemcitabine resistant model of PATU‐T. PDAC3 and PSCs were cultivated using complete RPMI medium, while PATU‐T‐GR required complete DMEM medium. For seeding, cells were detached with Trypsin‐EDTA (0.05%) (GibcoTM, 25,300–096) and were consequently counted using the Automated Cell Counter (Luna‐II, Westburg). Cells were then plated on 96‐ or 6‐well plates depending on the planned experiment.
(§2) The Sulforhodamine B (SRB) chemosensitivity assay was used to measure cytotoxicity and cell proliferation post drug treatment. At day 0, 3–6 × 10^3 cells were seeded in a 96‐well plate, depending on the cell line. At day 1, cells were attached and ready to be treated. For the calculation of the IC50, drug dilutions for the compounds 1b, 1c, 1d, 1e, 1g, 1hr, 1i, 1j, and LDC4297 (MedChemExpress, HY‐12,653) were prepared in dilution trays and eight different concentrations were included. These were added in triplicates to the cells, which were then incubated for […] at 37 °C in 5% CO2. During day 1, the control plate was fixed with 50% Trichloroacetic acid (TCA), as intended to be the baseline plate used for the normalization of the data. 72 h post‐treatment, the cells were fixed with TCA, and placed at 4 °C for about 2 h. The plates were then washed with distillated water and left to dry under the hood with ventilation. Subsequently, plates were stained with 0.4% SRB for 15 min and washed with 1% acetic acid to remove excess stain. Once dried again, the protein‐bound SRB was dissolved in 10 mM TRIS, and the plates were placed on a shaker for 10 min per plate. Lastly, the absorbance was measured at 492 nm with a spectrophotometer (Synergy HT, BioTek). The absorbance data obtained were normalized to the day 1 control, and the percentage of cell growth in relation to the control was calculated using the following formula. (1) %Cell growth=Mean OD treatment−Mean OD day0/Mean OD control−Mean OD day0×100
(§3) The percentage of proliferation and their respective standard deviations were used to perform statistical analysis in GraphPad Prism software v 10 (GraphPad Software, San Diego, CA). Data were normalized to the day 0 control and to their own untreated 72 h control. These were transformed into logarithmic data, and log(inhibitor) versus response analysis was performed for obtaining the IC50 values per cell lines. Each experiment was conducted in triplicates.

[2] = tested on: PANC‐1; test: SRB chemosensitivity assay, PANC‐1 cells; assay type: cell-based; settings: Homo sapiens, read-out: IC50 PANC‐1
Procedure: as §1, §2, §3

[3] = tested on: SUIT 2.28; test: SRB chemosensitivity assay, SUIT 2.28 cells; assay type: cell-based; settings: read-out: IC50 SUIT 2.28
Procedure: as §1, §2, §3

[4] = tested on: PATU‐T; test: Wound healing assay, PATU‐T; assay type: cell-based; settings: 1 × IC50 and 4 × IC50, 4 to 24 h
Procedure: The wound healing assay was used to test the migratory ability of the selected cells post‐treatment. Cells (5 × 10^4 /well) were seeded on 96‐well. After 24 h, cells reached the optimal 100% confluency, and an artificial wound was created with a 96‐well Pintool Scratcher. The cells were immediately washed with complete medium, in order to remove cell debris after the scratch, and images of the wells were captured at time 0 h, right before the addition of the treatment. Each drug (1b and 1g) was previously diluted in the respective medium at two different concentrations: 1 × IC50 and 4 × IC50 (according to the cell specific IC50 value) and were then added to the cells. Images were then taken at timepoints 4, 8, 20, and 24 h using the Leica microscope with a JAI TMC‐137 camera to assess wound closure. The images were analyzed using the Universal Grab 6.3 software (DCILabs), and the obtained data were used to determine the percentage of migration of the cells, using the following formula. (2) % Migration=Mean width of the wound atT=0−Mean width of the wound atT=X/Mean width of the wound atT=0×100

[5] = tested on: CDK7; settings: selective inhibition of CDK7, quoted in introduction; cited from earlier work
[6] = tested on: PDAC3; test: SRB chemosensitivity assay, primary PDAC3 cells; assay type: cell-based; settings: PDAC-3, SRB, primary cell line, average ± SEM, triplicate; read-out: IC50 PDAC3
Procedure: as §1, §2, §3

[7] = tested on: PATU‐T GR; test: SRB chemosensitivity assay, gemcitabine resistant PATU‐T GR cells; assay type: cell-based; settings: SRB, gemcitabine resistant PATU‐T GR, average ± SEM, triplicate; read-out: IC50 PATU‐GR
Procedure: as §1, §2
The percentage of proliferation and their respective standard deviations were used to perform statistical analysis in GraphPad Prism software v 10 (GraphPad Software, San Diego, CA). Data were normalized to the day 0 control and to their own untreated 72 h control. […]

[8] = tested on: PSC; test: SRB chemosensitivity assay, pancreatic stellate cells (PSC); assay type: cell-based; settings: Fibroblast; SRB, nontumorous immortalized pancreatic fibroblasts, average ± SEM, triplicate; read-out: IC50 PSC
Procedure: as §1
as §2, with “The plates were then washed with distillated water and left to dry under the hood with ventilation. Subsequently, plates were stained with 0.4% SRB for 15 min and washed with 1% acetic acid to remove excess stain. Once dried again, the protein‐bound SRB was dissolved in 10 mM TRIS, and the plates were placed on a shaker for 10 min per plate.” left out, “(1) %Cell growth=Mean OD treatment−Mean OD day0/Mean OD control−Mean OD day0×100” left out

[9] = tested on: PDAC cell lines; test: SRB chemosensitivity assay, ranges over several PDAC cell lines; assay type: cell-based; settings: range across the different cell lines
Procedure: as §1, with “Cells were then plated on 96‐ or 6‐well plates depending on the planned experiment.” left out
The Sulforhodamine B (SRB) chemosensitivity assay was used to measure cytotoxicity and cell proliferation post drug treatment. […] At day 1, cells were attached and ready to be treated. […] Lastly, the absorbance was measured at 492 nm with a spectrophotometer (Synergy HT, BioTek). The absorbance data obtained were normalized to the day 1 control, and the percentage of cell growth in relation to the control was calculated using the following formula. […]

[10] = target: CDK7 (Homo sapiens, UniProt P50613); test: In vitro CDK7 enzyme inhibition assay (ADP‐Glo); assay type: biochemical; parameters: purchased Promega Corporation VA7402; settings: ADP‐Glo assay, mean of triplicate experiments; read-out: CDK7 inhibition activity IC50
Chain of CDK7 (Homo sapiens, UniProt P50613) (P50613 whole entry): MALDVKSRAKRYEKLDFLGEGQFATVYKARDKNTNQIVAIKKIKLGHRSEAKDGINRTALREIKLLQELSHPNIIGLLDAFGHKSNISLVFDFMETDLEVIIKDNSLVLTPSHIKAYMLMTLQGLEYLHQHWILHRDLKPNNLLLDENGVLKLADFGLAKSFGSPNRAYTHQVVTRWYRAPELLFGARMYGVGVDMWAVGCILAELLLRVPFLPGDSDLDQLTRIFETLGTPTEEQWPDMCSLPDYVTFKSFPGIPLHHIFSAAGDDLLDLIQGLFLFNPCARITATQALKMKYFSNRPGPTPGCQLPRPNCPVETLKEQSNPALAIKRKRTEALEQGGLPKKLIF
Chain of CDK7 (Homo sapiens, UniProt P50613) (P51946 whole entry partner): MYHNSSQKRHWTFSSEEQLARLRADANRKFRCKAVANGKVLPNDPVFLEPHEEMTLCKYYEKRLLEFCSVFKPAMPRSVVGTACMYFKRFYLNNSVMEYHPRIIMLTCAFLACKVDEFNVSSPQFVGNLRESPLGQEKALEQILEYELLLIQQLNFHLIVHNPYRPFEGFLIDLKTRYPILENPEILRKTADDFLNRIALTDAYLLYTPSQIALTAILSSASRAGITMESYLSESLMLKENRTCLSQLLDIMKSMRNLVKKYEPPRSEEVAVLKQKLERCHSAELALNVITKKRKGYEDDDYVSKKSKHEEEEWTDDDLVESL
Chain of CDK7 (Homo sapiens, UniProt P50613) (P51948 whole entry partner): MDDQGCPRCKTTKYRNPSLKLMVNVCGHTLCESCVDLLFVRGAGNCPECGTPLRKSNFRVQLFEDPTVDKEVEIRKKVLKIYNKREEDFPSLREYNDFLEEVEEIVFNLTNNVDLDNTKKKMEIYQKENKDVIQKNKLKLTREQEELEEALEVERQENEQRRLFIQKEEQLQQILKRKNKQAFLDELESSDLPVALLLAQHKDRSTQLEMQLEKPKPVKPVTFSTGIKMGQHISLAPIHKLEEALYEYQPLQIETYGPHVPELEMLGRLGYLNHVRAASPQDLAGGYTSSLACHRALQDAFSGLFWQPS
Procedure: The CDK7 enzyme inhibition assay was conducted using the ADP‐Glo Kinase Assay (VA7402, Promega Corporation, Madison, WI, USA) according to the manufacturer's instructions. In this assay, CDK7 catalyzes the conversion of ATP to ADP. The reaction was terminated by adding the ADP‐Glo reagent, which depletes residual ATP. Subsequently, the kinase detection reagent was introduced to convert ADP back into ATP, which was then measured via a luciferase reaction, producing luminescence. The assay was carried out at room temperature, using DMSO as the solvent for the tested compounds. Each compound was tested at eight different concentrations. […] Luminescence was recorded using a BioTek plate reader (BioTek Instruments Inc.), as previously described.^[ [39] ^] The percentage of enzyme inhibition was determined for each compound at different concentrations, and mean IC50 values of triplicate experiments were calculated using GraphPad Prism.

[11] = target: T1, phosphorylated CDK7 (p‐CDK7) (Homo sapiens, UniProt P50613); test: Phospho‐CDK7 (Thr170) cell‐based ELISA, PDAC3; parameters: endogenous in cells; host or cells: PDAC3 primary cells; settings: PDAC3, 4 × IC50, ELISA
T1 sequence (P50613 2-346 limits assumed): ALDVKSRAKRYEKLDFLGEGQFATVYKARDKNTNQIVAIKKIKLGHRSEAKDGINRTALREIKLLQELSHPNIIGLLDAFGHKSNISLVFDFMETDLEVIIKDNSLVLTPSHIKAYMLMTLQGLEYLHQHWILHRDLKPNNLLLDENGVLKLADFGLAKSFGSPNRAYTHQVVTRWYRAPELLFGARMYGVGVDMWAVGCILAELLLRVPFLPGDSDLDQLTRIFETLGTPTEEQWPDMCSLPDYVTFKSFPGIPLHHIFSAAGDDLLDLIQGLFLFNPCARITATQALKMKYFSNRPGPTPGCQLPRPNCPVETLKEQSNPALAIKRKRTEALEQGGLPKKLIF
T1 sequence (P51946 whole entry partner): as the sequence (P51946 whole entry partner) above
T1 sequence (P51948 whole entry partner): as the sequence (P51948 whole entry partner) above
Procedure: (§4) To detect CDK7 and phospho‐CDK7 levels at Thr170 residue after treatment, an enzyme‐linked immunosorbent assay (Biomatik, Phospho‐CDK7 (Thr170) Colorimetric Cell‐Based ELISA Kit, Cat# EKA51274) was performed according to the manufacturer's protocols. […] The absorbance was read at 450 nm using a microplate reader.

[12] = target: T1, phosphorylated CDK7 (p‐CDK7); test: Phospho‐CDK7 (Thr170) cell‐based ELISA, SUIT 2.28; parameters: two PDAC preclinical models (SUIT 2.28 and PDAC3); endogenous in cells; host or cells: SUIT 2.28; settings: SUIT 2.28, 4 × IC50, ELISA
Procedure: as §4

[13] = SRB, 72 h of treatment, average ± SEM, triplicate
[14] = PANC-1, SRB, 72 h of treatment, average ± SEM, triplicate

Structure (SMILES): Nc1ncnc2cc(-c3c[nH]c4ccc(Cl)cc34)nn12 [Compound 1c, 7‐(5‐Chloro‐1H‐indol‐3‐yl)pyrazolo[1,5‐a][1,3,5]triazin‐4‐amine]
- IC50 [1, 13]: 1.9 ± 0.6 µM
- IC50 [2, 14]: 8.7 ± 1.5 µM
- IC50 [3, 13]: 400 ± 100 nM

Structure (SMILES): Nc1ncnc2cc(-c3c[nH]c4ccc(F)cc34)nn12 [Compound 1d, 7‐(5‐Fluoro‐1H‐indol‐3‐yl)pyrazolo[1,5‐a][1,3,5]triazin‐4‐amine]
- IC50 [1, 13]: 3.5 ± 0.7 µM
- IC50 [2, 14]: 9.6 ± 0.8 µM
- IC50 [3, 13]: 600 ± 100 nM

Structure (SMILES): COc1ccc2[nH]cc(-c3cc4ncnc(N)n4n3)c2c1 [Compound 1e, 7‐(5‐Methoxy‐1H‐indol‐3‐yl)pyrazolo[1,5‐a][1,3,5]triazin‐4‐amine]
- IC50 [1, 13]: 4.7 ± 0.9 µM
- IC50 [2, 14]: 8.8 ± 1.2 µM
- IC50 [3, 13]: 500 ± 100 nM
- inhibition of cell migration [4]: greatest inhibitory effect

Structure (SMILES): Cn1cc(-c2cc3ncnc(N)n3n2)c2cc(Cl)ccc21 [Compound 1h, 7‐(5‐Chloro‐1‐methyl‐1H‐indol‐3‐yl)pyrazolo[1,5‐a][1,3,5]triazin‐4‐amine]
- IC50 ([1]; 72 h): 2 ± 0.3 µM
- IC50 ([2]; PANC-1, 72 h): 3.1 ± 0.7 µM
- IC50 ([3]; 72 h): 1600 ± 300 nM

Structure (SMILES): Cn1cc(-c2cc3ncnc(N)n3n2)c2cc(F)ccc21 [Compound 1i, 7‐(5‐Fluoro‐1‐methyl‐1H‐indol‐3‐yl)pyrazolo[1,5‐a][1,3,5]triazin‐4‐amine]
- IC50 ([1]; 72 h): 5.5 ± 1.1 µM
- IC50 ([2]; PANC-1, 72 h): 2.2 ± 0.4 µM
- IC50 ([3]; 72 h): 500 ± 100 nM

Structure (SMILES): COc1ccc2c(c1)c(-c1cc3ncnc(N)n3n1)cn2C [Compound 1j, 7‐(5‐Methoxy‐1‐methyl‐1H‐indol‐3‐yl)pyrazolo[1,5‐a][1,3,5]triazin‐4‐amine]
- IC50 ([1]; 72 h): 4.7 ± 0.8 µM
- IC50 ([2]; PANC-1, 72 h): 2.4 ± 0.5 µM
- IC50 ([3]; 72 h): 500 ± 100 nM

Structure (SMILES): CC(C)c1ccccc1CNc1nc(OC2CCN(C)CC2)nc2c(C(C)C)cnn12 [LDC3140]
- IC50 [5]: < 5 nM

Structure (SMILES): CC(C)c1cnn2c(NCc3ccccc3-n3cccn3)nc(OC3CCCNC3)nc12 (stereo not shown) [LDC4297, reference compound]
- IC50 [1, 13]: 0.03 ± 0.01 µM
- IC50 [2, 14]: 0.02 ± 0.01 µM
- IC50 [3, 13]: 30 ± 10 nM
- IC50 [6]: 100 ± 20 nM
- IC50 [7]: 450 ± 90 nM
- IC50 [8]: 110 ± 20 nM
- IC50 [9]: 20 to 400 nM
- IC50 [5]: < 5 nM
- IC50 [10]: 7.5 nM
- p‐CDK7 expression vs untreated [11]: significant decrease in p‐CDK7 levels
- p‐CDK7 expression vs untreated [12]: significant decrease in p‐CDK7 levels
